The target in this test is T1, CXCR3 (Homo sapiens, UniProt P49682).
T1 construct: expressed in transfected cells; membrane preparation
T1 sequence (P49682 1-368): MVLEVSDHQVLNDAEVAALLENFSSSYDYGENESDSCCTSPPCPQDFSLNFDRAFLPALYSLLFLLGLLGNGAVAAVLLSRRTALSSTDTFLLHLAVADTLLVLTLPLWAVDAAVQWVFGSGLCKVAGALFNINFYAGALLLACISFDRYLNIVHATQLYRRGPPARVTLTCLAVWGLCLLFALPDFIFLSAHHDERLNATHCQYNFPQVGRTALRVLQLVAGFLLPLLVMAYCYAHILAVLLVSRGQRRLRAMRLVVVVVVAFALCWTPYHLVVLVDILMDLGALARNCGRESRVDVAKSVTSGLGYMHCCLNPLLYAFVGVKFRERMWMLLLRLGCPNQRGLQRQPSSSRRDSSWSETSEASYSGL
As to the kind of experiment: CXCR3/IP-10 radioligand binding (125I-IP-10 competition on CXCR3.L1/2 cell membranes). The note with it: test compound 10 μmol/L, 125I-labeled IP-10 binding to CXCR3.L1/2 transfectant cell membranes. The text has this: The activity of the compounds of the present invention can be assessed using a suitable assay, such as a receptor binding assay, a chemotaxis assay, an extracellular acidification assay or a calcium flux assay (see, for example, Hesselgesser et al., J. Biol. Chem., 273(25): 15687-15692 (1998) and WO 98/02151). For example, as described herein, small organic molecule antagonists of CXCR3/IP-10 binding have been identified utilizing cells engineered to express recombinant human CXCR3 (CXCR3.L1/2) and which bind ^125I-IP-10 and chemotax in response to IP-10, Mig, or I-TAC. Specifically, a high through-put receptor binding assay, which monitors ^125I-IP-10 biding to CXCR3.L1/2 cell membranes, was used to identify small molecule antagonists. Binding assays can be performed using other ligands of CXCR3, such as, Mig, and/or I-TAC.
CXCR3/IP-10 Radioligand Binding:
CXCR3.L1/2 Membrane Preparation:
CXCR3.L1/2 cells were pelleted by centrifugation and stored at −80° C. The cells were lysed by thawing and resuspending at about 1.5×10^7 cells/mL in a hypotonic buffer (5 mmol/L HEPES (pH 7.2), 2 mmol/L EDTA, 10 μg/mL each leupeptin, aprotinin, and chymostatin, and 100 μg/mL PMSF (all from Sigma, St. Louis)). Nuclei and cellular debris are removed by centrifugation ([…], at 4° C.) for 10 min. The supernatant was transferred to chilled centrifuge tubes (Nalge, Rochester, N.Y.) and the membrane fraction was recovered by centrifugation (25,000 g at 4° C.) for 45 min. The membrane pellet was resuspended in freezing buffer (10 mmol/L HEPES (pH 7.2), 300 mmol/L Sucrose, 5 μg/mL each of leupeptin, aprotinin, and chymostatin, and 10 μg/mL PMSF). The total protein concentration was determined using a coomassie blue staining protein concentration assay kit (BioRad). The membrane preparations are aliquoted and stored at −80° C. until time of use.
CXCR3/IP-10 binding was performed in 96-well polypropylene plates (Costar) in a final volume of 0.1 mL of HBB buffer (50 mmol/L Hepes pH 7.4, 1 mmol/L CaCl2, 5 mmol/L MgCl2, 0.02% sodium azide, 0.5% BSA (bovine serum albumin)), containing 1 to 5 μg CXCR3.L1/2 transfectant cell membrane protein and 0.05 to 0.2 nmol/L of ^125I-labeled IP-10 (NEN, Boston, Mass.). Competition binding experiments were performed by including variable concentrations of unlabeled IP-10 or test compound. Nonspecific binding was determined following the addition of a 250 nmol/L unlabelled IP-10. Samples were incubated for 60 min at room temperature, and bound and free tracer (^125I-labeled IP-10) were separated by filtration through 96-well GF/B filterplates presoaked in 0.3% polyethyleneimine. The filters were washed in HBB further supplemented with 0.5 mol/L NaCl, dried, and the amount of bound radioactivity determined by liquid scintillation counting. The competition is presented as the percent specific binding as calculated by 100×[(S−B)/(T−B)], where S is the radioactivity bound for each sample, B is background binding, and T is total bound in the absence of competitors. Duplicates were used throughout the experiments.

SMILES strings stand for the structures.

Regarding `Cc1cc(C)cc(CN2CCN(CCC(=O)N(C)c3cccc(CN4CCCCC4)c3)C2=C(C#N)C#N)c1` [Compound 1, N-Methyl-N-[3-(piperidinomethyl)phenyl]-3-[3-(3,5-dimethylbenzyl)-2-dicyanomethylideneimidazolidin-1-yl]propionamide], where the note is “results Table 5”, the inhibition (in general, the relative decrease from the control value, in per cent) at 10 µM was 92%.

On to `CCCN(C(=O)CCN1CCN(Cc2cc(C)cc(C)c2)C1=C(C#N)C#N)c1cccc(CN2CCCCC2)c1` [Compound 2, N-Propyl-N-[3-(piperidinomethyl)phenyl]-3-[3-(3,5-dimethylbenzyl)-2-dicyanomethylideneimidazolidin-1-yl]propionamide], for which the inhibition at 10 µM (results Table 5) worked out at 99%. `Cc1cc(C)cc(CN2CCN(CCC(=O)N(c3cccc(CN4CCCCC4)c3)C(C)C)C2=C(C#N)C#N)c1` [Compound 3, N-Isopropyl-N-[3-(piperidinomethyl)phenyl]-3-[3-(3,5-dimethylbenzyl)-2-dicyanomethylideneimidazolidin-1-yl]propionamide]: the inhibition at 10 µM (results Table 5) is 106%. On the same count and under the same terms, then `Cc1cc(C)cc(CN2CCN(CCC(=O)N(c3cccc(CN4CCCCC4)c3)C3CCCCC3)C2=C(C#N)C#N)c1` [Compound 4, N-Cyclohexyl-N-[3-(piperidinomethyl)phenyl]-3-[3-(3,5-dimethylbenzyl)-2-dicyanomethylideneimidazolidin-1-yl]propionamide], with 109%; and `Cc1cc(C)cc(CN2CCN(CCC(=O)N(Cc3ccccc3)c3cccc(CN4CCCCC4)c3)C2=C(C#N)C#N)c1` [Compound 5, N-Benzyl-N-[3-(piperidinomethyl)phenyl]-3-[3-(3,5-dimethylbenzyl)-2-dicyanomethylideneimidazolidin-1-yl]propionamide], with 95%; and `CC(=O)OCCN(C(=O)CCN1CCN(Cc2cc(C)cc(C)c2)C1=C(C#N)C#N)c1cccc(CN2CCCCC2)c1` [Compound 6, N-(2-Acetoxyethyl)-N-[3-(piperidinomethyl)phenyl]-3-[3-(3,5-dimethylbenzyl)-2-dicyanomethylideneimidazolidin-1-yl]propionamide], with 93%. Turning to `Cc1cc(C)cc(CN2CCN(CCC(=O)N(CCO)c3cccc(CN4CCCCC4)c3)C2=C(C#N)C#N)c1` [Compound 7, N-(2-Hydroxyethyl)-N-[3-(piperidinomethyl)phenyl]-3-[3-(3,5-dimethylbenzyl)-2-dicyanomethylideneimidazolidin-1-yl]propionamide], the inhibition at 10 µM (results Table 5) is 83%. For `CCOC(=O)CN(C(=O)CCN1CCN(Cc2cc(C)cc(C)c2)C1=C(C#N)C#N)c1cccc(CN2CCCCC2)c1` [Compound 8, N-Ethoxycarbonylmethyl-N-[3-(piperidinomethyl)phenyl]-3-[3-(3,5-dimethylbenzyl)-2-dicyanomethylideneimidazolidin-1-yl]propionamide], the inhibition at 10 µM (results Table 5) was found to be 95%.

With `Cc1cc(C)cc(CN2CCN(CCC(=O)N(CC(=O)O)c3cccc(CN4CCCCC4)c3)C2=C(C#N)C#N)c1` [Compound 9, N-Carboxymethyl-N-[3-(piperidinomethyl)phenyl]-3-[3-(3,5-dimethylbenzyl)-2-dicyanomethylideneimidazolidin-1-yl]propionamide], the inhibition at 10 µM (results Table 5) came out at 83%. Regarding `Cc1cc(C)cc(CN2CCN(CCC(=O)N(CCCF)c3cccc(CN4CCCCC4)c3)C2=C(C#N)C#N)c1` [Compound 11, N-(3-Fluoropropyl)-N-[3-(piperidinomethyl)phenyl]-3-[3-(3,5-dimethylbenzyl)-2-dicyanomethylideneimidazolidin-1-yl]propionamide], the inhibition at 10 µM (results Table 5) turned out to be 95%. With `Cc1cc(C)cc(CN2CCN(CCC(=O)N(CC(N)=O)c3cccc(CN4CCCCC4)c3)C2=C(C#N)C#N)c1` [Compound 12, N-Aminocarbonylmethyl-N-[3-(piperidinomethyl)phenyl]-3-[3-(3,5-dimethylbenzyl)-2-dicyanomethylideneimidazolidin-1-yl]propionamide], the inhibition at 10 µM (results Table 5) came to 84%. On the same count and under the same terms, in the case of `Cc1cc(C)cc(CN2CCN(CCC(=O)N(Cc3nnn[nH]3)c3cccc(CN4CCCCC4)c3)C2=C(C#N)C#N)c1` [Compound 13, N-(1H-tetrazol-5-ylmethyl)-N-[3-(piperidinomethyl)phenyl]-3-[3-(3,5-dimethylbenzyl)-2-dicyanomethylideneimidazolidin-1-yl]propionamide] it was 67%.

On to `Cc1cccc(CN2CCN(CCC(=O)N(c3cccc(CN4CCCCC4)c3)C(C)C)C2=C(C#N)C#N)c1C` [Compound 14, N-Isopropyl-N-[3-(piperidinomethyl)phenyl]-3-[3-(2,3-dimethylbenzyl)-2-dicyanomethylideneimidazolidin-1-yl]propionamide], for which the inhibition at 10 µM (results Table 6) amounted to 105%. `CC(C)N(C(=O)CCN1CCN(C2Cc3cccc4cccc2c34)C1=C(C#N)C#N)c1cccc(CN2CCCCC2)c1` (centres unmarked) [Compound 15, N-Isopropyl-N-[3-(piperidinomethyl)phenyl]-3-[3-(1-acenaphthenyl)-2-dicyanomethylideneimidazolidin-1-yl]propionamide]: the inhibition at 10 µM (results Table 6) was 95%. In the case of `CC(C)N(C(=O)CCN1CCN(Cc2cc(Cl)cc(Cl)c2)C1=C(C#N)C#N)c1cccc(CN2CCCCC2)c1` [Compound 17, N-Isopropyl-N-[3-(piperidinomethyl)phenyl]-3-[3-(3,5-dichlorobenzyl)-2-dicyanomethylideneimidazolidin-1-yl]propionamide], the inhibition at 10 µM (results Table 6) is 93%. As for `CCCN(C(=O)CCN1CCN(Cc2cc(Cl)cc(Cl)c2)C1=C(C#N)C#N)c1cc(CN2CCCCC2)ccc1C` [Compound 18, N-Propyl-N-[2-methyl-5-(piperidinomethyl)phenyl]-3-[3-(3,5-dichlorobenzyl)-2-dicyanomethylideneimidazolidin-1-yl]propionamide], the inhibition at 10 µM (results Table 6) amounted to 94%.

On to `CCCN(C(=O)CCN1CCN(Cc2cc(Cl)cc(Cl)c2)C1=C(C#N)C#N)c1cc(CN2CCCCC2)ccc1Cl` [Compound 19, N-Propyl-N-[2-chloro-5-(piperidinomethyl)phenyl]-3-[3-(3,5-dichlorobenzyl)-2-dicyanomethylideneimidazolidin-1-yl]propionamide], for which, where the note is “results Table 6”, the inhibition at 10 µM turned out to be 101%. Consider `CCCN(C(=O)CCN1CCN(Cc2cc(Cl)cc(Cl)c2)C1=C(C#N)C#N)c1cccc(CN2CCCCC2)c1C` [Compound 20, N-Propyl-N-[2-methyl-3-(piperidinomethyl)phenyl]-3-[3-(3,5-dichlorobenzyl)-2-dicyanomethylideneimidazolidin-1-yl]propionamide], for which the inhibition at 10 µM (results Table 6) worked out at 68%. For the compound `CCCNCc1cccc(N(CC)C(=O)CCN2CCN(Cc3cc(C)cc(C)c3)C2=C(C#N)C#N)c1` [Compound 21, N-Ethyl-N-[3-(propylaminomethyl)phenyl]-3-[3-(3,5-dimethylbenzyl)-2-dicyanomethylideneimidazolidin-1-yl]propionamide], the inhibition at 10 µM (results Table 6) was found to be 71%. On the same count and under the same terms, then `Cc1cc(C)cc(CN2CCN(CCC(=O)N(c3cccc(CN4CCOCC4)c3)C(C)C)C2=C(C#N)C#N)c1` [Compound 22, N-Isopropyl-N-[3-(morpholinomethyl)phenyl]-3-[3-(3,5-dimethylbenzyl)-2-dicyanomethylideneimidazolidin-1-yl]propionamide], with 93%.

The values are drawn from patent US20040122026A1, “Imidazolidine compounds” (Millennium Pharmaceuticals, Inc., priority 2002, published 2004).
